From PubChem BioAssay (NCI)
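48-hour exposure; five concentrations; linearly interpolated endpoints. Here, GI50 denotes the concentration required for 50% inhibition of growth. TGI marks complete inhibition of growth.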

Columns and labels:
Assay in all cases: NCI anticancer screen, dose series, 48 h; in the data active means GI50 below about 0.43 µM; inactive means the rest
SK-OV-3 ovarian = tested on: SK-OV-3 ovarian
LOX IMVI melanoma = tested on: LOX IMVI melanoma
IGROV1 ovarian = tested on: IGROV1 ovarian
COLO 205 colon = tested on: COLO 205 colon
HCT-116 colon = tested on: HCT-116 colon
CCRF-CEM leukemia = tested on: CCRF-CEM leukemia
U251 CNS = tested on: U251 CNS
A498 renal = tested on: A498 renal
OVCAR-5 ovarian = tested on: OVCAR-5 ovarian
EKVX NSCLC = tested on: EKVX NSCLC
HT29 colon = tested on: HT29 colon
SN12C renal = tested on: SN12C renal
NCI/ADR-RES ovarian = tested on: NCI/ADR-RES ovarian
MALME-3M melanoma = tested on: MALME-3M melanoma
SR leukemia = tested on: SR leukemia
HL-60(TB) leukemia = tested on: HL-60(TB) leukemia
M14 melanoma = tested on: M14 melanoma
UACC-257 melanoma = tested on: UACC-257 melanoma
ACHN renal = tested on: ACHN renal
MOLT-4 leukemia = tested on: MOLT-4 leukemia
OVCAR-4 ovarian = tested on: OVCAR-4 ovarian
SF-539 CNS = tested on: SF-539 CNS
SK-MEL-28 melanoma = tested on: SK-MEL-28 melanoma
SF-295 CNS = tested on: SF-295 CNS
OVCAR-8 ovarian = tested on: OVCAR-8 ovarian
HCT-15 colon = tested on: HCT-15 colon
SNB-75 CNS = tested on: SNB-75 CNS
A549 NSCLC = tested on: A549 NSCLC
MDA-MB-435 = tested on: MDA-MB-435
HCC-2998 colon = tested on: HCC-2998 colon
786-0 renal = tested on: 786-0 renal
NCI-H226 lung = tested on: NCI-H226 lung
NCI-H23 lung = tested on: NCI-H23 lung
PC-3 prostate = tested on: PC-3 prostate
K-562 leukemia = tested on: K-562 leukemia
UO-31 renal = tested on: UO-31 renal
HOP-92 NSCLC = tested on: HOP-92 NSCLC
NCI-H522 lung = tested on: NCI-H522 lung
RPMI-8226 leukemia = tested on: RPMI-8226 leukemia
HS 578T breast = tested on: HS 578T breast
SK-MEL-2 melanoma = tested on: SK-MEL-2 melanoma
SF-268 CNS = tested on: SF-268 CNS
DU-145 prostate = tested on: DU-145 prostate
SNB-19 CNS = tested on: SNB-19 CNS
CAKI-1 renal = tested on: CAKI-1 renal
KM12 colon = tested on: KM12 colon
NCI-H460 lung = tested on: NCI-H460 lung
UACC-62 melanoma = tested on: UACC-62 melanoma
MDA-MB-231 breast = tested on: MDA-MB-231 breast
OVCAR-3 ovarian = tested on: OVCAR-3 ovarian
HOP-62 NSCLC = tested on: HOP-62 NSCLC
MCF7 breast = tested on: MCF7 breast
SW-620 colon = tested on: SW-620 colon
BT-549 breast = tested on: BT-549 breast
SK-MEL-5 melanoma = tested on: SK-MEL-5 melanoma
TK-10 renal = tested on: TK-10 renal
T-47D breast = tested on: T-47D breast
RXF 393 renal = tested on: RXF 393 renal

COc1ccccc1/C=C/C(=O)c1ccc(Nc2nc(Nc3ccc(F)cc3)nc(Nc3ccc(F)cc3)n2)cc1
97.8 µM: TGI (MOLT-4 leukemia)
inactive: GI50 (SK-OV-3 ovarian) 69.7 µM | GI50 (LOX IMVI melanoma) 21.1 µM | GI50 (IGROV1 ovarian) 22.6 µM | GI50 (COLO 205 colon) 2.55 µM | GI50 (HCT-116 colon) 4.58 µM | GI50 (CCRF-CEM leukemia) 5.6 µM | GI50 (U251 CNS) 9.8 µM | GI50 (A498 renal) 13.3 µM | GI50 (OVCAR-5 ovarian) 51.9 µM | GI50 (EKVX NSCLC) 38.1 µM | GI50 (HT29 colon) 15.8 µM | GI50 (SN12C renal) 51.2 µM | GI50 (NCI/ADR-RES ovarian) 13 µM | GI50 (MALME-3M melanoma) 20.1 µM | GI50 (SR leukemia) 4.34 µM | GI50 (HL-60(TB) leukemia) 3.77 µM | GI50 (M14 melanoma) 25.5 µM | GI50 (UACC-257 melanoma) 22 µM | GI50 (ACHN renal) 25.2 µM | GI50 (MOLT-4 leukemia) 6.13 µM | GI50 (OVCAR-4 ovarian) 65.3 µM | GI50 (SF-539 CNS) 1.73 µM | GI50 (SK-MEL-28 melanoma) 33.6 µM | GI50 (SF-295 CNS) 14.4 µM | GI50 (OVCAR-8 ovarian) 9.4 µM | GI50 (HCT-15 colon) 6.57 µM | GI50 (SNB-75 CNS) 50.6 µM | GI50 (A549 NSCLC) 10.9 µM | GI50 (MDA-MB-435) 19.4 µM | GI50 (HCC-2998 colon) 25.2 µM | GI50 (786-0 renal) 2.85 µM | GI50 (NCI-H226 lung) 6.61 µM | GI50 (NCI-H23 lung) 18.9 µM | GI50 (PC-3 prostate) 5.49 µM | GI50 (K-562 leukemia) 9.94 µM | GI50 (UO-31 renal) 9.52 µM | GI50 (HOP-92 NSCLC) 7.24 µM | GI50 (NCI-H522 lung) 23 µM | GI50 (RPMI-8226 leukemia) 3.03 µM | GI50 (HS 578T breast) 8.29 µM | GI50 (SK-MEL-2 melanoma) 25.2 µM | GI50 (SF-268 CNS) 45.7 µM | GI50 (DU-145 prostate) 55.9 µM | GI50 (SNB-19 CNS) 74.2 µM | GI50 (CAKI-1 renal) > 100 µM | GI50 (KM12 colon) 7.67 µM | GI50 (NCI-H460 lung) 9.38 µM | GI50 (UACC-62 melanoma) 55.5 µM | GI50 (MDA-MB-231 breast) 25.8 µM | GI50 (OVCAR-3 ovarian) 22.2 µM | GI50 (HOP-62 NSCLC) 16.3 µM | GI50 (MCF7 breast) 5.45 µM | GI50 (SW-620 colon) 6.49 µM | GI50 (BT-549 breast) 13.5 µM | GI50 (SK-MEL-5 melanoma) 10.5 µM | GI50 (TK-10 renal) 48.6 µM | GI50 (T-47D breast) 8.01 µM | GI50 (RXF 393 renal) 2.49 µM
17.6 µM: TGI (SF-539 CNS)
46.5 µM: TGI (MALME-3M melanoma) | TGI (HOP-92 NSCLC)
98.5 µM: TGI (SF-295 CNS)
86.7 µM: TGI (M14 melanoma)
66.6 µM: TGI (UACC-257 melanoma)
> 100 µM: TGI (SK-OV-3 ovarian) | TGI (LOX IMVI melanoma) | TGI (IGROV1 ovarian) | TGI (HCT-116 colon) | TGI (CCRF-CEM leukemia) | TGI (U251 CNS) | TGI (OVCAR-5 ovarian) | TGI (EKVX NSCLC) | TGI (HT29 colon) | TGI (SN12C renal) | TGI (NCI/ADR-RES ovarian) | TGI (SR leukemia) | TGI (HL-60(TB) leukemia) | TGI (ACHN renal) | TGI (OVCAR-4 ovarian) | TGI (SK-MEL-28 melanoma) | TGI (OVCAR-8 ovarian) | TGI (HCT-15 colon) | TGI (SNB-75 CNS) | TGI (A549 NSCLC) | TGI (HCC-2998 colon) | TGI (NCI-H226 lung) | TGI (NCI-H23 lung) | TGI (PC-3 prostate) | TGI (K-562 leukemia) | TGI (UO-31 renal) | TGI (NCI-H522 lung) | TGI (SK-MEL-2 melanoma) | TGI (SF-268 CNS) | TGI (DU-145 prostate) | TGI (SNB-19 CNS) | TGI (CAKI-1 renal) | TGI (KM12 colon) | TGI (NCI-H460 lung) | TGI (UACC-62 melanoma) | TGI (MDA-MB-231 breast) | TGI (OVCAR-3 ovarian) | TGI (MCF7 breast) | TGI (SW-620 colon) | TGI (BT-549 breast) | TGI (TK-10 renal) | TGI (T-47D breast)
16.3 µM: TGI (RPMI-8226 leukemia)
77.6 µM: TGI (HOP-62 NSCLC)
14.9 µM: TGI (786-0 renal)
90.7 µM: TGI (MDA-MB-435)
9.37 µM: TGI (RXF 393 renal)
47.2 µM: TGI (A498 renal)
40 µM: TGI (SK-MEL-5 melanoma)
55.1 µM: TGI (COLO 205 colon)
71.1 µM: TGI (HS 578T breast)
